Measured values: paper PMC10574475, “Development and Validation of a UHPLC–MS/MS Method for the Quantification of a Novel PYGB Inhibitor in Plasma: Application to Pharmacokinetic Studies” (Molecules, 2023)
“Also recorded” adds a separate entry of the source. Like-named read-outs stand apart in the source and are kept apart here.

Columns and labels:
[1] = Plasma pharmacokinetics after intravenous administration (UHPLC–MS/MS); assay type: in vivo, SD rats; details: rat plasma; for AUC(0-inf) / AUC(0-t) / Cmax / Vd / clearance / half-life: both sexes, SD
Method: 50 μL of the plasma to be tested was aspirated precisely and placed in a 1.5 mL centrifuge tube. Then 5 μL of internal standard working solution and 150 μL of methanol were added sequentially to the centrifuge tube, and the tube was vortexed for 60 s and centrifuged at 6147× g for 10 min. Finally, 100 μL of supernatant was taken and added to the injection vial for quantitative analysis by UHPLC–MS/MS.
(§1) Liquid chromatography conditions. UHPLC–MS/MS analyses were performed on an Agilent 1260 ultra-high performance liquid chromatograph (Agilent Technologies Co., Ltd., Santa Clara, CA, USA) and a QTRAP 5500 triple quadrupole tandem mass spectrometer (AB Sciex Pte. Ltd., Framingham, MA, USA). An ACQUITY UPLC BEH C18 column (2.1 × 50 mm, 1.7 µm) was used at […] with a flow rate of 0.3 mL/min and an injection volume of 2 µL. The analysis time was 5 min using an isocratic elution procedure of methanol and water (4:1, v/v).
In the plasma pharmacokinetic study, 30 healthy SD rats (half male and half female) were selected and randomly divided into 3 groups of 10 rats each. Three groups of SD rats were injected with a single dose of compound 1 (0.8 mg/kg, 1.6 mg/kg, 3.2 mg/kg) by tail vein, respectively. At 0.084, 0.25, 1, 2, 4, 6, 8, 12, 24 h after administration, 0.5 mL of blood was collected from the fundus venosus in heparin-anticoagulated tubes, and the plasma was separated by centrifugation at 6149× g for 10 min, and then placed in 1.5 mL Eppendorf tubes and stored in the refrigerator at −80 °C for measurement.
(§2) The data was processed using Origin 2021 to plot the drug concentration–time curve in plasma, and DAS 2.0 software was used to calculate the pharmacokinetic parameters by the […] statistical moment method, and the results of the experiments were expressed as mean ± standard deviation. Differences between groups were analyzed using SPSS 20.0, with p < 0.05 indicating statistical significance.

[2] = Brain tissue distribution after intravenous administration; assay type: in vivo, SD rats; details: rat; for brain tissue concentration: after injection
Method: Brain tissue homogenate samples for analysis were prepared by adding 9 volumes of homogenate solution (MeOH/15 mMPBS (1: 2, v/v)) to one volume of brain homogenate and diluting it 10-fold. Firstly, an aliquot of 40 μL of the brain homogenate sample to be tested (diluted sample), calibration standards, QC and diluted QC, a zero sample (with internal standard) and a blank sample (without internal standard) were added to the 96-well plate. Then, each sample (except blank samples) was quenched with 400 μL of IS1 (blank samples were quenched with 400 μL of acetonitrile), and the mixture was vortexed at 800 rpm for 10 min, followed by centrifugation at 3220× g at 4 °C for 15 min. Finally, a 50 μL aliquot of the supernatant was transferred to another clean 96-well plate and centrifuged at 3220× g for 15 min at 4 °C, then injected directly into the sample for UHPLC–MS/MS analysis.
as §1
In the preliminary brain tissue distribution study, 18 healthy male SD rats were injected with 3.2 mg/kg of compound 1 intravenously into the tail, and the animals were euthanized by CO2 inhalation at 0.25, 2 and 8 h after the administration of compound 1, respectively. Blood and brain tissue were then collected separately from each animal. Brain tissue was homogenized on wet ice using homogenizing buffer (MeOH/15 mM PBS = 1/2) at a ratio of 1:9 (1 g tissue to 9 mL buffer). The tissue homogenate was divided into two parts, 0.8 mL was used for analysis and the rest was discarded.
as §2

[3] = Stability of compound 1 in rat plasma under different storage conditions; assay type: in vitro ADME
Method: Stability was assessed under the four conditions (storage at room temperature for 12 h, […] for 24 h, refrigerator storage at −20 °C for 10 days, and freeze-thawing at −80 °C to 25 °C for 3 cycles) using the QC working solution (2.5, 800 ng/mL), and six preparations were made in parallel for each concentration. The stability of compound 1 in rat plasma was evaluated by calculating the peak area ratio (compound 1/IS) in plasma sample.

PYGB = test system: PYGB; set-up: method as in PMID 36234871, PMID 36838691, PMID 36108587; details: previous studies; read-out: IC50 of PYGB inhibition; cited from earlier work
[4] = male, Sprague-Dawley (SD), brain tissue, 3.2 mg/kg iv
[5] = 3.2 mg/kg iv, 0.25 h, 3.2 mg/kg

Molecule `CCCC1(CCC)NC(=O)c2cc(NC(=O)c3cc4cc(Cl)ccc4[nH]3)ccc2O1` [compound 1, 5-chloro-N-(4-oxo-2,2-dipropyl-3,4-dihydro-2H-benzo[e][1,3]oxazin-6-yl)-1H-indole-2-carboxamide] has an AUC(0-inf) ([1]; 0.8 mg/kg iv) of 900 ± 441 ng·h/mL, an AUC(0-t) ([1]; 0.8 mg/kg iv) of 895 ± 440 ng·h/mL and a Cmax ([1]; 0.8 mg/kg iv) of 1180 ± 361 ng/mL. It also gave a Vd ([1]; 0.8 mg/kg iv) of 6.43 ± 3.48 L/kg, a clearance ([1]; 0.8 mg/kg iv) of 16.7 mL/min/kg and a half-life ([1]; 0.8 mg/kg iv) of 274 ± 130 min. It also gave an AUC(0-inf) ([1]; 1.6 mg/kg iv) of 1610 ± 371 ng·h/mL, an AUC(0-t) ([1]; 1.6 mg/kg iv) of 1600 ± 372 ng·h/mL and a Cmax ([1]; 1.6 mg/kg iv) of 2030 ± 289 ng/mL. For the same molecule, the Vd ([1]; 1.6 mg/kg iv) was 7.51 ± 6.15 L/kg, the clearance ([1]; 1.6 mg/kg iv) was 17.3 mL/min/kg and the half-life ([1]; 1.6 mg/kg iv) was 288 ± 193 min. For the same molecule, the AUC(0-inf) ([1]; 3.2 mg/kg iv) was 3630 ± 973 ng·h/mL, the AUC(0-t) ([1]; 3.2 mg/kg iv) was 3630 ± 970 ng·h/mL and the Cmax ([1]; 3.2 mg/kg iv) was 3710 ± 683 ng/mL. For the same molecule, the Vd ([1]; 3.2 mg/kg iv) was 4.14 ± 1.23 L/kg, the clearance ([1]; 3.2 mg/kg iv) was 15.7 mL/min/kg and the half-life ([1]; 3.2 mg/kg iv) was 185 ± 34.8 min. For the same molecule, the linearity of pharmacokinetics ([1]; iv, dose range 0.8–3.2 mg/kg) was “linear pharmacokinetic characteristics; also recorded: linear pharmacokinetic profile”, the “AUC0–∞” value ([2]; brain tissue, 3.2 mg/kg iv) was 668 ng·h/g and the concentration at 0.25 h ([2]; male, SD, brain, iv, 3.2 mg/kg, 3.2 mg/kg iv, 0.25 h, read-out: CBrain (concentration in brain tissue)) was 440 ± 19.1 ng/g. It also gave a concentration at 2 h ([2]; male, SD, brain, iv, 3.2 mg/kg, 3.2 mg/kg iv, 2 h, read-out: CBrain (concentration in brain tissue)) of 111 ± 23.9 ng/g, a concentration at 8 h ([2]; male, SD, brain, iv, 3.2 mg/kg, 3.2 mg/kg iv, 8 h, read-out: CBrain (concentration in brain tissue)) of 4.17 ± 7.22 ng/g and a Kp at 0.25 h ([2]; male, SD, brain/plasma, iv, 3.2 mg/kg, 3.2 mg/kg iv, 0.25 h, read-out: CBrain/CPlasma ratio) of 0.112 ± 0.0185. The Kp at 2 h ([2]; male, SD, brain/plasma, iv, 3.2 mg/kg, 3.2 mg/kg iv, 2 h, read-out: CBrain/CPlasma ratio) was 0.112 ± 0.0292, the Kp at 8 h ([2]; male, SD, brain/plasma, iv, 3.2 mg/kg, 3.2 mg/kg iv, 8 h, read-out: CBrain/CPlasma ratio) was 0.09 ± 0.148 and the concentration at 0.25 h ([2]; male, SD, plasma, iv, 3.2 mg/kg, 3.2 mg/kg iv, 0.25 h, read-out: CPlasma (concentration in plasma)) was 4020 ± 677 ng/g. It also gave a concentration at 2 h ([2]; male, SD, plasma, iv, 3.2 mg/kg, 3.2 mg/kg iv, 2 h, read-out: CPlasma (concentration in plasma)) of 1020 ± 275 ng/g, a concentration at 8 h ([2]; male, SD, plasma, iv, 3.2 mg/kg, 3.2 mg/kg iv, 8 h, read-out: CPlasma (concentration in plasma)) of 32.9 ± 14.5 ng/g and a Cmax ([2]; male, SD, plasma, 3.2 mg/kg iv) of 4890 ng/g. The Tmax ([2]; male, SD, plasma, 3.2 mg/kg iv) was 0 min, the half-life ([2]; male, SD, plasma, 3.2 mg/kg iv) was 68.4 min and the Cmax [2, 4] was 440 ng/g. It also gave an MRT [2, 4] of 1.65 h, a Tmax [2, 4] of 15 min and a half-life [2, 4] of 70.8 min. For the same molecule, the MRT ([2]; male, Sprague-Dawley (SD), plasma, 3.2 mg/kg iv) was 1.47 h, the “AUC0–∞” value ([2]; plasma, 3.2 mg/kg iv) was 6659 ng·h/g and the “CBrain (concentration in brain tissue)” value [2, 5] was 440.0 ± 19.1 ng/g. The CBrain/CPlasma ratio [2, 5] was 0.11 ± 0.019, the “CBrain (concentration in brain tissue)” value ([2]; 3.2 mg/kg iv, 2 h, 3.2 mg/kg) was 111.0 ± 23.9 ng/g and the CBrain/CPlasma ratio ([2]; 3.2 mg/kg iv, 2 h, 3.2 mg/kg) was 0.11 ± 0.029. The “CBrain (concentration in brain tissue)” value ([2]; 3.2 mg/kg iv, 8 h, 3.2 mg/kg) was 4.2 ± 7.2 ng/g, the brain tissue concentration ([2]; 0.25 h (abstract)) was 440 ± 19.1 ng/g and the brain tissue concentration ([2]; 2 h (abstract)) was 111 ± 23.9 ng/g. The “crossing of the blood–brain barrier” value ([2]; iv) was “able to cross the blood–brain barrier; also recorded: could quickly cross the blood–brain barrier”, the “Stability, RE” value ([3]; 2.5 ng/mL, auto-sampler (24 h), 4 °C) was 13.81% and the “Stability, RE” value ([3]; 2.5 ng/mL, room temperature (12 h)) was 0.50%. For the same molecule, the “Stability, RE” value ([3]; 2.5 ng/mL, storage at −20 °C (10 days)) was 12.30%, the “Stability, RE” value ([3]; 2.5 ng/mL, thaw and freeze (from −80 °C to 25 °C), 3 cycles) was 12.40% and the “Stability, RE” value ([3]; 800 ng/mL, auto-sampler (24 h), 4 °C) was −3.20%. For the same molecule, the “Stability, RE” value ([3]; 800 ng/mL, room temperature (12 h)) was 1.03%, the “Stability, RE” value ([3]; 800 ng/mL, storage at −20 °C (10 days)) was −0.65% and the “Stability, RE” value ([3]; 800 ng/mL, thaw and freeze (from −80 °C to 25 °C), 3 cycles) was −3.64%. For the same molecule, the IC50 (PYGB) was 90.3 nM.
